# Measured values: patent publication US20110124523A1, “High Throughput Method for Detecting Apoptosis of Embryonic Stages of Metazoan Helminthic Parasites” (INSTITUTE OF LIFE SCIENCES, priority 2009, published 2011)
# Several values for one entry are separate records, joined by “and”; a condition that tells them apart may be missing. Equal values may be shown once.
# Key:
# [1] = tested on: embryonic stages of S. digitata; experiment: Intra cellular expression of CED-9 protein, flow cytometry; assay type: cell-based, Setaria digitata; details: 24 hr
# Method: Adult female filarial worms Setaria digitata were collected from the peritoneum of cattle, slaughtered at a nearby abattoir in sterile Hanks Balanced Salt Solution (HBSS) medium (Sigma H 2387-1L) and transported to the laboratory in a sterile container. The medium containing 1% glucose (Sigma G 7528), Penicillin 100 units/ml, Streptomycin 100 μg/ml (Sigma P 4333). And Amphotericin-B 0.25 μg/ml (Sigma A 2942) was buffered with NaHCO3 (Sigma S 5761). About 5 to 7 worms were taken in a petridish, washed three times in medium, dissected into small pieces in 10 ml of medium under sterile conditions and incubated at 37° C. for 30 minutes to allow the release of embryonic stages (eggs and microfilariae) into the medium. The embryonic stages were harvested into sterile 15 ml. centrifuge tubes and washed three times by centrifuging at 300 g for 10 minutes each with medium and the final pellet was suspended in 1 ml. of RPMI-1640 medium (Sigma R 8005) supplemented with 10% FBS (Sigma F 2442) The number of embryonic stages of S. digitata in the above preparation were counted using light microscope, and the suspension was taken in RPMI-1640 medium containing 10% FBS at 1×10^5 embryonic stages/ml. One ml. each was dispensed into individual wells of a 24 well tissue culture plate. One set of wells was taken as untreated control containing only medium with 10% FBS. […] Motility of the Mf was scored under an inverted microscope. After appropriate treatment and incubation, each set of the cultured embryonic stages of S. digitata were harvested from the 24 well tissue culture plate separately in 15 ml. sterile centrifuge tubes, washed with PBS twice and stained as per requirement following manufacturer's instructions as described below. This was followed by two times washing with PBS and final suspension of the stained embryonic stages was taken in 0.5 ml of sheath fluid (BD Biosciences 342003) before their acquisition in the flow cytometer (BD FACS Calibur, Becten and Dickinson, USA). Analysis was performed on 10,000-acquired events depicted as Dot Plots and Histogram Plots using Cellquest Pro soft ware. All plots were representative of at least 3 experiments. The distinctly clustered populations obtained consistently in the Dot plots for the intra uterine embryonic stages of S. digitata (FIG. 1 a) were gated for Mfs (R-1) and eggs (R-2 and R-3) and analyzed for different assays for apoptosis as described below. After in vitro culture for 24 hours with apoptosis inducing reagents the embryonic stages were harvested in 15 ml. sterile centrifuge tubes and fixed for 60 minutes at 0° C. in 1% paraformaldehyde (Sigma P 6148) in PBS. The suspension was washed first with PBS and then with 1× permeabilisation buffer (eBioscience 00-8333-56) and finally resuspended in 100 μl of 1× permeabilisation buffer at 1×10^5 embryonic stages per ml. The intracellular expression of CED-9 was scored by incubation of the fixed and permeabilised embryonic stages with primary goat antibodies—anti CED-9 (Santacruz sc-9202) followed by probing with PE conjugated secondary anti goat IgG-PE (Santacruz sc-3747) antibodies. Incubation of both primary and secondary antibodies (both 1/100 diluted) was done successively in 1× permeabilisation buffer (e Bioscience 00-8333-56) for 1 hr and 45 minutes respectively. The suspension of stained embryonic stages was then washed with PBS twice and finally reading was taken by flow cytometry or confocal microscopy.
# [2] = tested on: embryonic stages of S. digitata; experiment: Intra cellular activation of caspase-3 like cysteine proteinases, anti active caspase-3-PE staining; assay type: cell-based, Setaria digitata; details: 24 hr
# Method: Adult female filarial worms Setaria digitata were collected from the peritoneum of cattle, slaughtered at a nearby abattoir in sterile Hanks Balanced Salt Solution (HBSS) medium (Sigma H 2387-1L) and transported to the laboratory in a sterile container. The medium containing 1% glucose (Sigma G 7528), Penicillin 100 units/ml, Streptomycin 100 μg/ml (Sigma P 4333). And Amphotericin-B 0.25 μg/ml (Sigma A 2942) was buffered with NaHCO3 (Sigma S 5761). About 5 to 7 worms were taken in a petridish, washed three times in medium, dissected into small pieces in 10 ml of medium under sterile conditions and incubated at 37° C. for 30 minutes to allow the release of embryonic stages (eggs and microfilariae) into the medium. The embryonic stages were harvested into sterile 15 ml. centrifuge tubes and washed three times by centrifuging at 300 g for 10 minutes each with medium and the final pellet was suspended in 1 ml. of RPMI-1640 medium (Sigma R 8005) supplemented with 10% FBS (Sigma F 2442) The number of embryonic stages of S. digitata in the above preparation were counted using light microscope, and the suspension was taken in RPMI-1640 medium containing 10% FBS at 1×10^5 embryonic stages/ml. One ml. each was dispensed into individual wells of a 24 well tissue culture plate. One set of wells was taken as untreated control containing only medium with 10% FBS. […] Motility of the Mf was scored under an inverted microscope. After appropriate treatment and incubation, each set of the cultured embryonic stages of S. digitata were harvested from the 24 well tissue culture plate separately in 15 ml. sterile centrifuge tubes, washed with PBS twice and stained as per requirement following manufacturer's instructions as described below. This was followed by two times washing with PBS and final suspension of the stained embryonic stages was taken in 0.5 ml of sheath fluid (BD Biosciences 342003) before their acquisition in the flow cytometer (BD FACS Calibur, Becten and Dickinson, USA). Analysis was performed on 10,000-acquired events depicted as Dot Plots and Histogram Plots using Cellquest Pro soft ware. All plots were representative of at least 3 experiments. […] After in vitro culture for 24 hours with apoptosis inducing reagents the embryonic stages were harvested in 15 ml. sterile centrifuge tubes and fixed for 60 minutes at 0° C. in 1% paraformaldehyde (Sigma P 6148) in PBS. The suspension was washed first with PBS and then with 1× permeabilisation buffer (eBioscience 00-8333-56) and finally resuspended in 100 μl of 1× permeabilisation buffer at 1×10^5 embryonic stages per ml. This suspension was then incubated for 45 minutes with 20 μl of anti active caspase-3-PE (BD Biosciences 559762). This was followed by washing with PBS twice and analysis by Flow cytometer.
smiles,measurement,setting,value
OO [H2O2],"GMI (Geometric Mean Intensity) of Fluorescence, CED-9 Expression","[1]; Eggs, 10 μM",115.67 and 123.32 and 113.26
same,"GMI (Geometric Mean Intensity) of Fluorescence, CED-9 Expression","[1]; Microfilariae, 10 μM",15.66 and 17.26 and 16.13
same,"GMI (Geometric Mean Intensity) of Fluorescence, Caspase-3 Activation","[2]; Eggs, 10 μM",56.95 and 61.37 and 60.20
same,"GMI (Geometric Mean Intensity) of Fluorescence, Caspase-3 Activation","[2]; Microfilariae, 10 μM",7.57 and 9.69 and 12.34
CN[C@@H]1C[C@H]2O[C@@](C)([C@@H]1OC)n1c3ccccc3c3c4c(c5c6ccccc6n2c5c31)C(=O)NC4 [Staurosporine],"GMI (Geometric Mean Intensity) of Fluorescence, CED-9 Expression","[1]; Eggs, 1 μM",106.36 and 109.16 and 107.34
same,"GMI (Geometric Mean Intensity) of Fluorescence, CED-9 Expression","[1]; Microfilariae, 1 μM",10.32 and 9.56 and 11.02
same,"GMI (Geometric Mean Intensity) of Fluorescence, Caspase-3 Activation","[2]; Eggs, 1 μM",50.13 and 54.95 and 50.97
same,"GMI (Geometric Mean Intensity) of Fluorescence, Caspase-3 Activation","[2]; Microfilariae, 1 μM",6.20 and 6.72
CC1=CC(=O)c2c(O)cccc2C1=O [Plumbagin],"GMI (Geometric Mean Intensity) of Fluorescence, CED-9 Expression","[1]; Eggs, 10 μM",206.36 and 202.92 and 205.16
same,"GMI (Geometric Mean Intensity) of Fluorescence, CED-9 Expression","[1]; Microfilariae, 10 μM",30.96 and 33.25 and 32.27
same,"GMI (Geometric Mean Intensity) of Fluorescence, Caspase-3 Activation","[2]; Eggs, 10 μM",82.35 and 87.32 and 80.16
same,"GMI (Geometric Mean Intensity) of Fluorescence, Caspase-3 Activation","[2]; Microfilariae, 10 μM",10.57 and 11.22 and 14.16
